Key:
[1] = target: T1, COX-1 (Ovis aries, UniProt P05979); assay: recombinant COX-1 enzyme inhibition; assay type: biochemical
T1 sequence (P05979 25-600): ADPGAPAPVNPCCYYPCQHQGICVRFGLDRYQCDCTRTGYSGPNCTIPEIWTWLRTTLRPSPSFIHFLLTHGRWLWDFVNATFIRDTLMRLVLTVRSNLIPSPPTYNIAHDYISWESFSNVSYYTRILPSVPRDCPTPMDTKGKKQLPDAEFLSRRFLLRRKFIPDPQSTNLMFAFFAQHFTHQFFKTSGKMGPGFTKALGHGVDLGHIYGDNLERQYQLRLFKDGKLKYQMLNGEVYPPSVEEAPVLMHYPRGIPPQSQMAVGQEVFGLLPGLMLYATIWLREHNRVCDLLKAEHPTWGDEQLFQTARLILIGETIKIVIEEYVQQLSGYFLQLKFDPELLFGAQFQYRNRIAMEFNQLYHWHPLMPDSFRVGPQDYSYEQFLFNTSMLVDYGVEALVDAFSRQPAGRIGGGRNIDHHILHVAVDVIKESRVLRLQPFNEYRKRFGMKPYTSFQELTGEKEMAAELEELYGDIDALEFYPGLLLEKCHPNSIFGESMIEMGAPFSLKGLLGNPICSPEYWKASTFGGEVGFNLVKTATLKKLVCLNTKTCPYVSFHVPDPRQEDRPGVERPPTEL

[2] = target: T2, COX-2 (Ovis aries, UniProt P79208); assay: recombinant COX-2 enzyme inhibition; assay type: biochemical
T2 sequence (P79208 17-603): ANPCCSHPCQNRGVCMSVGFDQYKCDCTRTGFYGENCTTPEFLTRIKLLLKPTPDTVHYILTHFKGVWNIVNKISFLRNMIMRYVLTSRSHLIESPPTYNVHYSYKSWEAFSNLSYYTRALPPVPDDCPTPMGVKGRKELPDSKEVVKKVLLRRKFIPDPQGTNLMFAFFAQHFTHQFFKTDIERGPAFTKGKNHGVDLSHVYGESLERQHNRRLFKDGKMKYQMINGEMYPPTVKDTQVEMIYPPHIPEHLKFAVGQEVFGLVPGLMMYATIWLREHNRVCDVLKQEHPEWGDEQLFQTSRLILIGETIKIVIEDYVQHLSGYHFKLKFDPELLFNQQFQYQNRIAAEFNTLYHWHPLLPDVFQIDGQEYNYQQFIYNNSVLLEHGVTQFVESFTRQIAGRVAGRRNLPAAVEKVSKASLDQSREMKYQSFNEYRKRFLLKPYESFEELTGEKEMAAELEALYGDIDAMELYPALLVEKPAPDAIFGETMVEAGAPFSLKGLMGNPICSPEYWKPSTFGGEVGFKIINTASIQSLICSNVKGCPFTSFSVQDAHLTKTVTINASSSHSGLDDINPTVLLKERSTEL

CC(=O)Oc1ccc(NCCc2ccc(C(F)(F)F)cc2)cc1C(=O)O [flusalazine, 2-acetoxy-5-(2-4-(trifluoromethyl)-phenethylamino)-benzoic acid]
IC50 [1]: 16.2 µM
IC50 [2]: 651 µM

Source: paper PMC9748189 (Journal of Pain Research, 2022)
